Measured values as given in PubChem BioAssay (NCI).
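Protocol summary: plate cells (96-well), add compound at 5 concentrations, incubate 48 h, interpolate endpoints linearly. The concentration for 50% growth inhibition is given as GI50. At the TGI there is no net growth.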 Where a SMILES comes first, the peptide text is derived from it. [ ]: non-standard residue; d: D form.

How the values were obtained:
Test in all cases: DTP human tumour cell line panel, 48 h
BT-549 breast = system: BT-549 breast
HS 578T breast = system: HS 578T breast
HT29 colon = system: HT29 colon
NCI-H226 lung = system: NCI-H226 lung
NCI-H522 lung = system: NCI-H522 lung
OVCAR-3 ovarian = system: OVCAR-3 ovarian
OVCAR-8 ovarian = system: OVCAR-8 ovarian
RPMI-8226 leukemia = system: RPMI-8226 leukemia
T-47D breast = system: T-47D breast
A498 renal = system: A498 renal

| Compound | TGI (BT-549 breast) [µM] | TGI (HS 578T breast) [µM] | TGI (HT29 colon) [µM] | TGI (NCI-H226 lung) [µM] | TGI (NCI-H522 lung) [µM] | TGI (OVCAR-3 ovarian) [µM] | TGI (OVCAR-8 ovarian) [µM] | TGI (RPMI-8226 leukemia) [µM] | TGI (T-47D breast) [µM] | GI50 (A498 renal) [µM] | TGI (A498 renal) [µM] | GI50 (BT-549 breast) [µM] | GI50 (HS 578T breast) [µM] | GI50 (NCI-H226 lung) [µM] | GI50 (OVCAR-3 ovarian) [µM] | GI50 (OVCAR-8 ovarian) [µM] | GI50 (RPMI-8226 leukemia) [µM] | GI50 (T-47D breast) [µM] | GI50 (HT29 colon) [µM] | GI50 (NCI-H522 lung) [µM] |
| --- | --- | --- | --- | --- | --- | --- | --- | --- | --- | --- | --- | --- | --- | --- | --- | --- | --- | --- | --- | --- |
| Cc1cnc2c(c1)C(=O)N(c1ccc(Oc3ccccc3)cc1)S2(=O)=O | > 100 | > 100 | > 100 | > 100 | > 100 | > 100 | > 100 | > 100 | > 100 |  |  |  |  |  |  |  |  |  |  |  |
| Cc1ccc2sc3c(NCCCN)nc4ccccc4c3c(=O)c2c1 | 37.4 | 5.19 |  | 3.66 |  | 3.32 | 5.91 | 5.5 | 4.57 | 1.87 | 4.64 | 16.5 | 2.05 | 1.84 | 1.82 | 2.41 | 2.41 | 1.89 |  |  |
| CCCN=C1NC(C)=CSC(Nc2ccccc2)=C1C#N |  |  |  |  | > 100 | > 100 | > 100 | > 100 | > 100 |  | > 100 |  |  |  |  |  |  |  |  |  |
| CC(=O)/C=C(/C)[O-].CC(=O)/C=C(/C)[O-].CC(=O)[CH-]C(C)=O.CC(=O)[CH-]C(C)=O.[Zr+4] |  |  | > 100 |  | > 100 | > 100 |  |  |  | > 100 | > 100 |  |  |  | > 100 |  |  |  | > 100 | > 100 |
| CC(C)OC1=C(CC2(C)OCCO2)C(=O)C12OCCO2 | > 100 | > 100 | > 100 | > 100 | > 100 | > 100 | > 100 |  | > 100 |  | > 100 |  |  |  |  |  |  |  |  |  |
| CC(C)C[C@H](NC(=O)[C@H](CC(C)C)NC(=O)[C@@H](Cc1c[nH]c2ccccc12)NC(=O)[C@H](Cc1ccccc1)NC(=O)[C@@H](Cc1c[nH]c2ccccc12)NC(=O)[C@H](CCC(N)=O)NC(=O)[C@@H](CCC(N)=O)NC(=O)[C@@H]1CCCN1C(=O)[C@@H](CCCCN)NC(=O)[C@H]1CCCN1C(=O)[C@H](N)CCCN=C(N)N)C(N)=O (H-[dR][dP][dK]P[dQ]Q[dW]F[dW]LL-NH2) |  |  | > 100 | > 100 | > 100 | > 100 | > 100 | > 100 |  |  | 88.1 |  |  |  |  |  |  |  |  |  |
| CC1(C)CCC2=C(O1)c1ccccc1C(=Nc1ccc([N+](=O)[O-])cc1)C2=O | 44 | > 100 | 25.2 | 25.3 | 30.1 | 25.3 | > 100 |  | 31 |  | 33.6 |  |  |  |  |  |  |  |  |  |
| [N-]=[N+]=C(C(=O)CN1CCCC1=O)S(=O)(=O)c1ccccc1 | > 100 | > 100 | > 100 | > 100 | > 100 | > 100 | > 100 | > 100 |  |  |  |  |  |  |  |  |  |  |  |  |
| O=C1C(Cl)N(c2ccc([N+](=O)[O-])cc2)C1c1c[nH]c2ccccc12 (configuration not stated) |  |  | > 100 |  | > 100 | > 100 | > 100 | > 100 |  |  |  |  |  |  |  |  |  |  |  |  |
| CCOP(=O)(OCC)C(Nc1ccc(Cl)cc1)c1ccc(F)cc1 (configuration not stated) |  | 54.4 | 62.9 | 88 | 49.7 | > 100 | > 100 | 67.6 | 40.8 |  | 58.7 |  |  |  |  |  |  |  |  |  |
| NS(=O)(=O)c1nnc(NS(=O)(=O)c2cccc3cccnc23)s1 | > 100 | > 100 |  | > 100 |  | > 100 | > 100 | > 100 | > 100 |  | > 100 |  |  |  |  |  |  |  |  |  |
| COC(=O)/C1=C/C=C\C[C@@]2(C)CC(c3ccoc3)OC(=O)[C@@H]2CC[C@H]1C (some centres not stated) | > 25 | > 25 | > 25 | > 25 |  | > 25 | > 25 |  |  |  | > 25 |  |  |  |  |  |  |  |  |  |
| [N-]=[N+]=Nc1cc(=O)[nH]c2ccccc12 | > 100 | > 100 | > 100 | > 100 | > 100 | > 100 | > 100 | > 100 | > 100 |  |  |  |  |  |  |  |  |  |  |  |
| Cc1nc(N)c(N2CCN(S(=O)(=O)N(Cc3ccccc3)Cc3ccccc3)CC2)c(=O)[nH]1 | > 100 | 69.8 | 63.3 | > 100 |  | 73.8 | > 100 | > 100 | 59.7 |  |  |  |  |  |  |  |  |  |  |  |
| O=c1c(O)c(-c2ccccc2)oc2c(CP(=O)(O)O)cccc12 | > 100 |  |  |  | > 100 | > 100 |  |  | > 100 |  | > 100 |  |  |  |  |  |  |  |  |  |
| O=S(=O)(O)c1cc(S(=O)(=O)O)c2cc(N=Nc3ccc(N=Nc4ccc(/C=C/c5ccc(N=[N+]([O-])c6ccc(/C=C/c7ccc(N=Nc8ccc(N=Nc9ccc%10cc(S(=O)(=O)O)cc(S(=O)(=O)O)c%10c9)cc8)cc7S(=O)(=O)O)c(S(=O)(=O)O)c6)cc5S(=O)(=O)O)c(S(=O)(=O)O)c4)cc3)ccc2c1 |  |  | > 100 | > 100 | > 100 | > 31.6 | > 100 | > 100 |  |  | > 100 |  |  |  |  |  |  |  |  |  |
| Cc1ccc(/C=c2\c(=O)[nH]c3nc4ccccc4c(=O)n23)cc1 | 60.3 | > 100 |  |  | > 100 | > 100 | > 100 | > 100 | > 100 |  |  |  |  |  |  |  |  |  |  |  |
| CCOc1ccc2c(c1)C(/C(C(Cl)=C(Cl)Cl)=[N+](/[O-])OC(=O)c1ccccc1)=N2 | 97.8 | > 100 | > 100 | > 100 | > 100 | > 100 | > 100 |  | > 100 |  | > 100 |  |  |  |  |  |  |  |  |  |
| COc1cc(C2c3cccc4cccc(c34)C3CCC(=O)N32)cc(OC)c1O (configuration not stated) | > 50 |  | > 50 | > 50 |  | > 50 | > 50 | > 50 | > 50 |  | > 50 |  |  |  |  |  |  |  |  |  |
| Cc1cc(C)[n+]2c(c1)C=CC2 |  |  | > 100 | 60.8 | 49.5 | 38.6 | > 100 |  |  |  |  |  |  |  |  |  |  |  |  |  |
| O=C(Nc1ccc(Br)cc1)C(=O)C(C(=O)c1ccc(Cl)c(Cl)c1)C1OC(=O)c2ccccc21 (configuration not stated) |  |  | 45 | 20.6 | 47.9 | 67.3 | 32.3 | > 100 |  |  | 33.9 |  |  |  |  |  |  |  |  |  |
| CC1(C)C2CC3C(C)(C2)C31c1cc(Cl)ccc1N (configuration not stated) | 30 |  | 27.6 | 34.6 | 19.7 | 31.2 | 30.3 | 30 | 26.2 |  | 31.8 |  |  |  |  |  |  |  |  |  |
| O=c1c2cccnc2oc2c(Cl)cc(-c3nn[nH]n3)cc12 |  | > 100 | > 100 | > 100 |  | > 100 | > 100 |  | > 100 |  | > 100 |  |  |  |  |  |  |  |  |  |
